Data reported in PubChem BioAssay AID328 (DTP/NCI, 2004).
Several values for one entry are separate records, joined by “and”; a condition that tells them apart may be missing. Equal values may be shown once. Inconclusive results and toxic doses are left out.

System: BDF1 mice, P388 leukemia ip, median survival T/C
Assay: NCI In Vivo Anticancer Drug Screen. Data for tumor model P388 Leukemia (intraperitoneal) in B6D2F1 (BDF1) mice
Details: endpoint: median survival time, higher = longer survival
Procedure, shortened: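 Steps: implant the tumour, treat one group with compound and another with vehicle, record survival, then divide treated by control.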

[1] = dose: 50.0 mg/kg/injection, schedule: Q04DX003 (ip), vehicle: saline with Tween-80
[2] = dose: 100.0 mg/kg/injection, schedule: Q04DX003 (ip), vehicle: saline with Tween-80
[3] = dose: 25.0 mg/kg/injection, schedule: Q01DX009 (ip), vehicle: saline
[4] = dose: 50.0 mg/kg/injection, schedule: Q01DX009 (ip), vehicle: saline
[5] = dose: 400.0 mg/kg/injection, schedule: Q04DX003 (ip), vehicle: saline sonified
[6] = dose: 100.0 mg/kg/injection, schedule: Q01DX009 (ip), vehicle: saline with Tween-80
[7] = dose: 200.0 mg/kg/injection, schedule: Q01DX009 (ip), vehicle: saline with Tween-80
[8] = dose: 400.0 mg/kg/injection, schedule: Q01DX009 (ip), vehicle: saline with Tween-80
[9] = dose: 6.25 mg/kg/injection, schedule: Q04DX003 (ip), vehicle: water
[10] = dose: 12.5 mg/kg/injection, schedule: Q04DX003 (ip), vehicle: water
[11] = dose: 25.0 mg/kg/injection, schedule: Q04DX003 (ip), vehicle: water
[12] = dose: 50.0 mg/kg/injection, schedule: Q01DX009 (ip), vehicle: saline with Tween-80
[13] = dose: 100.0 mg/kg/injection, schedule: Q04DX003 (ip), vehicle: Klucel (hydroxypropylcellulose) (HPC)
[14] = dose: 200.0 mg/kg/injection, schedule: Q04DX003 (ip), vehicle: Klucel (hydroxypropylcellulose) (HPC)
[15] = dose: 400.0 mg/kg/injection, schedule: Q04DX003 (ip), vehicle: Klucel (hydroxypropylcellulose) (HPC)
[16] = dose: 50.0 mg/kg/injection, schedule: Q04DX003 (ip), vehicle: saline
[17] = dose: 100.0 mg/kg/injection, schedule: Q04DX003 (ip), vehicle: saline

Cc1nc(Cl)c(C#N)c(C)c1Cl
T/C (dose: 50.0 mg/kg/injection, schedule: Q01DX005 (ip), vehicle: saline with Tween-80): 97 % of control | T/C (dose: 100.0 mg/kg/injection, schedule: Q01DX005 (ip), vehicle: saline with Tween-80): 92 % of control | T/C (dose: 200.0 mg/kg/injection, schedule: Q01DX005 (ip), vehicle: saline with Tween-80): 94 % of control

Cc1ccccc1-c1nc2cc(Cl)ccc2c(=O)o1
T/C (dose: 25.0 mg/kg/injection, schedule: Q04DX003 (ip), vehicle: saline with Tween-80): 104 % of control | T/C [1]: 100 % of control | T/C [2]: 109 % of control

O=C(C[n+]1ccc2ccccc2c1)c1ccc(Br)cc1
T/C (dose: 7.03 mg/kg/injection, schedule: Q04DX003 (ip), vehicle: saline): 100 % of control | T/C (dose: 12.5 mg/kg/injection, schedule: Q01DX009 (ip), vehicle: saline): 114 % of control | T/C (dose: 14.06 mg/kg/injection, schedule: Q04DX003 (ip), vehicle: saline): 108 % of control | T/C [3]: 109 % of control | T/C (dose: 28.12 mg/kg/injection, schedule: Q04DX003 (ip), vehicle: saline): 100 % of control | T/C [4]: 119 % of control | T/C (dose: 56.25 mg/kg/injection, schedule: Q04DX003 (ip), vehicle: saline): 95 % of control | T/C (dose: 75.0 mg/kg/injection, schedule: Q01DX009 (ip), vehicle: saline): 112 % of control

Cn1cnc([N+](=O)[O-])c1Sc1ncnc2nc[nH]c12
T/C (dose: 44.0 mg/kg/injection, schedule: Q04DX003 (ip), vehicle: saline sonified): 110 % of control | T/C (dose: 66.0 mg/kg/injection, schedule: Q04DX003 (ip), vehicle: saline sonified): 120 % of control | T/C (dose: 150.0 mg/kg/injection, schedule: Q04DX003 (ip), vehicle: saline sonified): 175 % of control | T/C (dose: 200.0 mg/kg/injection, schedule: Q01DX009 (ip), vehicle: saline): 86 % of control | T/C [5]: 109 % of control

O=C1OC(c2ccc(O)cc2)(c2ccc(Oc3ccccc3)cc2)c2ccccc21 (stereo not drawn)
T/C [6]: 97 % of control | T/C [7]: 105 % of control | T/C [8]: 99 % of control

Nc1nc(N)c2cc(N3CCCC3c3ccc(Cl)c(Cl)c3)ccc2n1 (stereo not drawn)
T/C (dose: 0.78 mg/kg/injection, schedule: Q01DX009 (ip), vehicle: water): 110 % of control | T/C (dose: 1.56 mg/kg/injection, schedule: Q01DX009 (ip), vehicle: water): 117 % of control | T/C (dose: 3.12 mg/kg/injection, schedule: Q01DX009 (ip), vehicle: water): 113 % of control | T/C (dose: 3.12 mg/kg/injection, schedule: Q04DX003 (ip), vehicle: water): 104 % of control and 109 % of control | T/C (dose: 6.25 mg/kg/injection, schedule: Q01DX009 (ip), vehicle: water): 119 % of control | T/C [9]: 110 % of control and 116 % of control | T/C [10]: 108 % of control and 114 % of control | T/C (dose: 20.0 mg/kg/injection, schedule: Q04DX003 (ip), vehicle: water): 111 % of control | T/C [11]: 116 % of control

COc1cc2cnccc2cc1O
T/C [9]: 97 % of control | T/C [10]: 98 % of control | T/C [11]: 118 % of control | T/C (dose: 50.0 mg/kg/injection, schedule: Q04DX003 (ip), vehicle: water): 95 % of control | T/C (dose: 100.0 mg/kg/injection, schedule: Q04DX003 (ip), vehicle: water): 98 % of control

CCOC(=O)C1(C(C)C)OC2(O)CCCCCN2C1=O (stereo not drawn)
T/C [12]: 95 % of control | T/C [6]: 109 % of control | T/C [7]: 104 % of control

CC(=O)C1=CC(=O)NC(=O)C1C(=O)CC(C)C (stereo not drawn)
T/C (dose: 1.56 mg/kg/injection, schedule: Q01DX009 (ip), vehicle: saline + alcohol): 115 % of control | T/C (dose: 3.13 mg/kg/injection, schedule: Q01DX009 (ip), vehicle: saline + alcohol): 123 % of control | T/C (dose: 6.25 mg/kg/injection, schedule: Q01DX009 (ip), vehicle: other): 118 % of control | T/C (dose: 6.25 mg/kg/injection, schedule: Q01DX009 (ip), vehicle: saline + alcohol): 106 % of control

CCOC(=O)c1ccc(=O)n(C(C)C)c1
T/C [13]: 90 % of control | T/C [14]: 90 % of control | T/C [15]: 100 % of control

Nc1nc(N)c2cc(S(=O)(=O)c3ccc4ccccc4c3)ccc2n1
T/C (dose: 50.0 mg/kg/injection, schedule: Q01DX009 (ip), vehicle: Klucel (hydroxypropylcellulose) (HPC)): 90 % of control | T/C (dose: 100.0 mg/kg/injection, schedule: Q01DX009 (ip), vehicle: Klucel (hydroxypropylcellulose) (HPC)): 109 % of control | T/C [13]: 90 % of control | T/C (dose: 200.0 mg/kg/injection, schedule: Q01DX009 (ip), vehicle: Klucel (hydroxypropylcellulose) (HPC)): 95 % of control | T/C [14]: 104 % of control | T/C [15]: 104 % of control

O=c1cc(O)cc(/C=C/c2ccc(O)cc2)o1
T/C [6]: 96 % of control | T/C [7]: 107 % of control | T/C (dose: 265.0 mg/kg/injection, schedule: Q01DX009 (ip), vehicle: saline with Tween-80): 90 % of control | T/C [8]: 98 % of control

CN1CCN=C1c1ccc(NC(=O)c2ccc(C(=O)Nc3ccc(C4=NCCN4C)cc3)cc2)cc1
T/C (dose: 3.13 mg/kg/injection, schedule: Q04DX003 (ip), vehicle: saline): 100 % of control | T/C (dose: 4.0 mg/kg/injection, schedule: Q01DX009 (ip), vehicle: saline): 213 % of control | T/C (dose: 6.0 mg/kg/injection, schedule: Q01DX009 (ip), vehicle: saline): 240 % of control | T/C (dose: 6.25 mg/kg/injection, schedule: Q04DX003 (ip), vehicle: saline): 95 % of control | T/C (dose: 9.0 mg/kg/injection, schedule: Q01DX009 (ip), vehicle: saline): 245 % of control

OC1(O)CCN(Cc2ccccc2)CC1
T/C [12]: 122 % of control | T/C [1]: 95 % of control | T/C [6]: 104 % of control | T/C [2]: 100 % of control | T/C [7]: 95 % of control | T/C (dose: 200.0 mg/kg/injection, schedule: Q04DX003 (ip), vehicle: saline with Tween-80): 105 % of control

O=C(O)c1cc(Br)cc(SSc2cc(Br)cc(C(=O)O)c2O)c1O
T/C (dose: 25.0 mg/kg/injection, schedule: Q01DX009 (ip), vehicle: saline with Tween-80): 103 % of control | T/C [12]: 94 % of control | T/C [6]: 106 % of control

CC(=O)N1CCc2cc(N)ccc21
T/C [16]: 95 % of control | T/C [17]: 95 % of control | T/C (dose: 200.0 mg/kg/injection, schedule: Q04DX003 (ip), vehicle: saline): 91 % of control

C/C(=N\[N+](C)(C)C)c1cccc(C)n1
T/C [3]: 100 % of control | T/C (dose: 25.0 mg/kg/injection, schedule: Q04DX003 (ip), vehicle: saline): 108 % of control | T/C (dose: 33.0 mg/kg/injection, schedule: Q04DX003 (ip), vehicle: saline with Tween-80): 100 % of control | T/C (dose: 33.0 mg/kg/injection, schedule: Q04DX003 (ip), vehicle: saline): 104 % of control | T/C [4]: 95 % of control | T/C [1]: 100 % of control | T/C [16]: 95 % of control | T/C (dose: 75.0 mg/kg/injection, schedule: Q04DX003 (ip), vehicle: saline with Tween-80): 100 % of control | T/C (dose: 75.0 mg/kg/injection, schedule: Q04DX003 (ip), vehicle: saline): 100 % of control | T/C [17]: 108 % of control

COc1cccc(/C=C2\SC(=S)N(CCCN3CCOCC3)C2=O)c1OC
T/C [12]: 91 % of control | T/C [6]: 88 % of control

CSc1ncc(Br)c(C(=O)O)n1
T/C [6]: 95 % of control | T/C [7]: 100 % of control | T/C [8]: 104 % of control

N/N=C1/CCN2CCCc3cccc1c32
T/C [1]: 100 % of control | T/C [2]: 110 % of control

N=c1c(C(N)=O)cnc2n1CCCCC2
T/C [17]: 109 % of control

COc1ccc(Nc2nc(N)nc(CNc3ccc(Cl)cc3)n2)cc1
T/C (dose: 100.0 mg/kg/injection, schedule: Q04DX003 (ip), vehicle: saline sonified): 100 % of control | T/C (dose: 200.0 mg/kg/injection, schedule: Q04DX003 (ip), vehicle: saline sonified): 100 % of control | T/C [5]: 110 % of control

COc1ccc(OC)c(/C=C/c2ccnc3ccccc23)c1
T/C (dose: 50.0 mg/kg/injection, schedule: Q01DX010 (ip), vehicle: saline): 95 % of control | T/C (dose: 100.0 mg/kg/injection, schedule: Q01DX010 (ip), vehicle: saline): 110 % of control | T/C (dose: 200.0 mg/kg/injection, schedule: Q01DX010 (ip), vehicle: saline): 150 % of control | T/C (dose: 400.0 mg/kg/injection, schedule: Q01DX010 (ip), vehicle: saline): 165 % of control
